This note sets out measurements from publication PMC10945332, “Precision peptide theranostics: developing N- to C-terminus optimized theranostics targeting cholecystokinin-2 receptor” (Theranostics, 2024).

Where a SMILES comes first, the peptide text is derived from it. [ ]: non-standard residue; d: D form. 1Nal = N[C@@H](Cc1cccc2ccccc12)C(=O)O; NMeNle = CCCC[C@H](NC)C(=O)O; Sar = CNCC(=O)O

For the assay, the target named is T1, human CCK2R (Homo sapiens, UniProt P32239).
T1 construct: stably transfected to over-express the human full-length CCK2R (A431-CCK2R); expressed in transfected cells
T1 sequence (P32239 1-447): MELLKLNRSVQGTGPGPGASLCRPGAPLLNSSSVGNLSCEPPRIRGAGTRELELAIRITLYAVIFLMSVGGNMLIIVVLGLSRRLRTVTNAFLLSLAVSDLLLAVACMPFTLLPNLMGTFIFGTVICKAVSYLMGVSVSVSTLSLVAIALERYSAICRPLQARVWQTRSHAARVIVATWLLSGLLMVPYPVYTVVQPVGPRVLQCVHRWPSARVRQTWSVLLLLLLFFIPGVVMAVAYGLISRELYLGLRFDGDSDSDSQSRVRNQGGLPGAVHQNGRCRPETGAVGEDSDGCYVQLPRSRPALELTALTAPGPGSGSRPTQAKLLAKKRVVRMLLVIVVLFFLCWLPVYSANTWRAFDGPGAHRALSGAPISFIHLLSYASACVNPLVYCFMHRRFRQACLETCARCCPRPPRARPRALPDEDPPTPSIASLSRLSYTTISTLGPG
Kind of assay: Competitive binding against [177Lu]Lu-DOTA-CP04 in A431-CCK2R cells. To be noted: for IC50: N-terminal free linear peptides, vs [177Lu]Lu-DOTA-CP04 in A431-CCK2R cells, average of 2-4 biological replicates, read-out: IC50. The method, then:
Materials and Methods: Biology […]
In Vitro CCK2R-Ligand Competitive Binding Assays
All CCK2R binding experiments were conducted using A431 (human epidermoid carcinoma) […]
cells stably transfected to over-express the human full-length CCK2R (A431-CCK2R) (gifted […]
by Dr. Elisabeth von Guggenberg, Medizinische Universität Innsbruck).[41] As a negative […]
control, A431 cells stably transfected with an empty vector were analysed simultaneously […]
(A431-EV). All A431 cells were maintained in DMEM (Gibco, Australia) media supplemented […]
with 10% foetal calf serum and 250 µg/mL G418 as described previously.[32]
The affinity of all peptides for the CCK2R was evaluated using competitive binding assays […]
Briefly, 48 hours before the experiment […]
cells were plated at a density of 300,000 cells per well in 12 well plates. On the day of the […]
experiment, linear peptides were diluted in DMEM supplemented with 1% foetal calf serum to […]
DOTA-CP04 was added to each dilution. Cells were washed twice in ice-cold binding buffer […]
(DMEM supplemented with 1% foetal calf serum) and resuspended in 1 mL of the pre-prepared […]
peptide mix before being incubated at room temperature for 1 hour. Post-incubation the media […]
was removed and kept for analysis (unbound fraction) and the cells were washed twice in ice- […]
cold PBS which was pooled with the unbound fraction. Finally, 1 M NaOH (150µL) was added […]
to the wells and allowed to incubate for 5 min before lysates were collected (bound fraction).
A small volume of lysate was kept aside to determine protein concentration using the Pierce® BCA protein assay kit (Thermo Fisher, Australia). All samples were analysed using the Perkin […]
normalised according to protein concentration. Half maximal inhibitory concentration (IC50) was determined using nonlinear regression calculated using Gr aphPad Prism Software (GraphPad Software, California, USA). […]

Turning to `CCCC[C@@H](C(=O)N[C@@H](CC(=O)O)C(=O)N[C@@H](Cc1cccc2ccccc12)C(N)=O)N(C)C(=O)[C@H](Cc1c[nH]c2ccccc12)NC(=O)CN(C)C(=O)[C@H](Cc1ccc(O)cc1)NC(=O)[C@H](C)NC(=O)[C@@H](CCC(=O)O)NC(=O)[C@@H](CCC(=O)O)NC(=O)[C@@H](CCC(=O)O)NC(=O)[C@@H](CCC(=O)O)NC(=O)[C@@H](C)NC(=O)[C@H](N)CCC(=O)O` [GA6] (H-[dE][dA][dE][dE][dE][dE]AY[Sar]W[NMeNle]D[1Nal]-NH2), the IC50 amounted to 1.23 nM.
As for `CCCC[C@@H](C(=O)N[C@@H](CC(=O)O)C(=O)N[C@@H](Cc1cccc2ccccc12)C(N)=O)N(C)C(=O)[C@H](Cc1c[nH]c2ccccc12)NC(=O)CN(C)C(=O)[C@H](Cc1ccc(O)cc1)NC(=O)[C@H](C)NC(=O)[C@@H](CCC(=O)O)NC(=O)[C@@H](CCC(=O)O)NC(=O)[C@@H](CCC(=O)O)NC(=O)[C@@H](C)NC(=O)[C@@H](CCC(=O)O)NC(=O)[C@H](N)CCC(=O)O` [GA7] (H-[dE][dE][dA][dE][dE][dE]AY[Sar]W[NMeNle]D[1Nal]-NH2), the IC50 came to 0.184 nM. In addition, where the note is “linear peptides”, the “fold improvement of activity over CP04” value is recorded as “greater than 10 fold” and the “fold improvement of affinity over GA1” value is reported as roughly 2 fold.
`CCCC[C@@H](C(=O)N[C@@H](CC(=O)O)C(=O)N[C@@H](Cc1cccc2ccccc12)C(N)=O)N(C)C(=O)[C@H](Cc1c[nH]c2ccccc12)NC(=O)CN(C)C(=O)[C@H](Cc1ccc(O)cc1)NC(=O)[C@H](C)NC(=O)[C@@H](CCC(=O)O)NC(=O)[C@@H](CCC(=O)O)NC(=O)[C@@H](C)NC(=O)[C@@H](CCC(=O)O)NC(=O)[C@@H](CCC(=O)O)NC(=O)[C@H](N)CCC(=O)O` [GA8] (H-[dE][dE][dE][dA][dE][dE]AY[Sar]W[NMeNle]D[1Nal]-NH2): the IC50 is 1.62 nM.
Take `CCCC[C@@H](C(=O)N[C@@H](CC(=O)O)C(=O)N[C@@H](Cc1cccc2ccccc12)C(N)=O)N(C)C(=O)[C@H](Cc1c[nH]c2ccccc12)NC(=O)CN(C)C(=O)[C@H](Cc1ccc(O)cc1)NC(=O)[C@H](C)NC(=O)[C@@H](C)NC(=O)[C@@H](CCC(=O)O)NC(=O)[C@@H](CCC(=O)O)NC(=O)[C@@H](CCC(=O)O)NC(=O)[C@@H](CCC(=O)O)NC(=O)[C@H](N)CCC(=O)O` [GA10] (H-[dE][dE][dE][dE][dE][dA]AY[Sar]W[NMeNle]D[1Nal]-NH2): the IC50 worked out at 1.62 nM.

In general, IC50 refers to the concentration at which inhibition is half-maximal.
